Experimental data as given in patent US8470839B2, “N1-acyl-5-fluoropyrimidinone derivatives” (Dow Agrosciences, LLC., priority 2009, dated 2013).
Read-outs that look alike come from different tables or passages of the source.

Key:
[1] = tested on: Mycosphaerella graminicola; Anamorph: Septoria tritici; Bayer Code SEPTTR; assay: Evaluation of fungicidal activity: leaf blotch of wheat, greenhouse wheat plants inoculated with Septoria tritici; type: in vivo; details: Zymoseptoria tritici
Experimental: Evaluation of Fungicidal Activity: Leaf Blotch of Wheat (Mycosphaerella graminicola; Anamorph: Septoria tritici; Bayer Code […]) Wheat plants (variety Yuma) were grown from seed in a greenhouse in 50% mineral soil/50% soil-less Metro mix until the first leaf was fully emerged, with 7-10 seedlings per pot. These plants were inoculated with an aqueous spore suspension of Septoria tritici either prior to or after fungicide treatments. After inoculation the plants were kept in 100% relative humidity (one day in a dark dew chamber followed by two to three days in a lighted dew chamber) to permit spores to germinate and infect the leaf. The plants were then transferred to a greenhouse for disease to develop. The following table presents the activity of typical compounds of the present disclosure when evaluated in these experiments. The effectiveness of the test compounds in controlling disease was determined by assessing the severity of disease on treated plants, then converting the severity to percent control based on the level of disease on untreated, inoculated plants. In each case of Table II the rating scale is as follows: […]

[2] = 24 h, One-Day Protectant (1DP), 100 ppm, wheat leaf blotch, percent control vs untreated inoculated plants, read-out: SEPTTR 100 PPM 1DP (% Disease Control rating)
[3] = 72 h, Three-Day Curative (3DC), 100 ppm, wheat leaf blotch, percent control vs untreated inoculated plants, read-out: SEPTTR 100 PPM 3DC (% Disease Control rating)

Row | Compound | melting point | pest or weed control at 100 ppm [1, 2] | pest or weed control at 100 ppm [1, 3] | pest or weed control at 100 ppm ([1]; 24 h, read-out: SEPTTR 100 PPM 1DP (% Disease Control rating)) | pest or weed control at 100 ppm ([1]; 72 h, read-out: SEPTTR 100 PPM 3DC (% Disease Control rating))
1 | Cc1ccc(C(=O)n2cc(F)c(/N=C/N(C)C)nc2=O)c(C)c1 [Compound 5] |  | 76 to 100% | 76 to 100% |  | 
2 | CC(=O)Nc1nc(=O)n(C(=O)c2cccc(Cl)c2)cc1F [Compound 23] | 129.5 to 131 °C |  |  |  | 
3 | Nc1nc(=O)n(C(=O)c2ccc(F)c(F)c2)cc1F [Compound 20] | 150 to 152 °C | 76 to 100% | 76 to 100% |  | 
4 | Nc1nc(=O)n(C(=O)c2ccccc2)cc1F [Compound 14] | 213.2 to 215.3 °C | 76 to 100% | 76 to 100% |  | 
5 | Nc1nc(=O)n(C(=O)c2ccsc2)cc1F [Compound 19] | 223.1 to 225.2 °C | 76 to 100% | 76 to 100% |  | 
6 | CC(C)=CC(=O)n1cc(F)c(/N=C/N(C)C)nc1=O [Compound 6] | 128 to 130 °C | 76 to 100% | 76 to 100% |  | 
7 | COc1ccc(C(=O)n2cc(F)c(N)nc2=O)cc1OC [Compound 18] | 170 to 172 °C | 76 to 100% | 76 to 100% |  | 
8 | CC(=O)n1cc(F)c(/N=C/N(C)C)nc1=O [Compound 1, N′-(1-acetyl-5-fluoro-2-oxo-1,2-dihydropyrimidin-4-yl)-N,N-dimethylformamidine] | 125 to 130 °C (dec.) | 76 to 100% | 76 to 100% |  | 
9 | CC(=O)Nc1nc(=O)n(C(=O)c2ccccc2)cc1F [Compound 22] | 122.8 to 123.6 °C |  |  |  | 
10 | CN(C)/C=N/c1nc(=O)n(C(=O)c2c(Cl)cccc2Cl)cc1F [Compound 3, N′-[1-(2,6-dichlorobenzoyl)-5-fluoro-2-oxo-1,2-dihydro-pyrimidin-4-yl]-N,N-dimethylformamidine] | 185 to 187 °C |  |  | 51 to 75% | 76 to 100%
11 | CN(C)/C=N/c1nc(=O)n(C(=O)c2ccc(Cl)cc2Cl)cc1F [Compound 4] |  | 76 to 100% | 76 to 100% |  | 
12 | Nc1nc(=O)n(C(=O)c2cc(F)cc(F)c2)cc1F [Compound 13, 4-amino-1-(3,5-difluorobenzoyl)-5-fluoro-1H-pyrimidin-2-one] |  | 76 to 100% | 76 to 100% |  | 
13 | Nc1nc(=O)n(C(=O)c2ccccc2F)cc1F [Compound 16] | 228.3 to 229.7 °C | 76 to 100% | 76 to 100% |  | 
14 | COc1ccc(C(=O)n2cc(F)c(N)nc2=O)cc1 [Compound 15] | 257.9 to 259.6 °C | 76 to 100% | 76 to 100% |  | 

Continued, in another order:

Row | melting point | Compound | pest or weed control at 100 ppm [1, 2] | pest or weed control at 100 ppm [1, 3] | pest or weed control at 100 ppm ([1]; 24 h, read-out: SEPTTR 100 PPM 1DP (% Disease Control rating)) | pest or weed control at 100 ppm ([1]; 72 h, read-out: SEPTTR 100 PPM 3DC (% Disease Control rating))
15 | 154.8 to 156.5 °C | CN(C)/C=N/c1nc(=O)n(C(=O)c2cccs2)cc1F [Compound 10] | 76 to 100% | 76 to 100% |  | 
16 | 257 to 259.5 °C | Cc1ccc(C(=O)n2cc(F)c(N)nc2=O)cc1 [Compound 17] | 76 to 100% | 76 to 100% |  | 
17 | 128.8 to 130.5 °C | Cc1ccc(C(=O)n2cc(F)c(/N=C/N(C)C)nc2=O)cc1 [Compound 9] | 76 to 100% | 76 to 100% |  | 
18 | 146.9 to 148.2 °C | CC(=O)Nc1nc(=O)n(C(=O)c2ccc(C)cc2)cc1F [Compound 21, N-(5-fluoro-1-(4-methylbenzoyl)-2-oxo-1,2-dihydropyrimidin-4-yl)acetamide] |  |  |  | 
19 | 126.2 to 128.3 °C | COc1ccc(C(=O)n2cc(F)c(/N=C/N(C)C)nc2=O)cc1 [Compound 8] | 76 to 100% | 76 to 100% |  | 
20 | 95.3 to 97.7 °C | CN(C)/C=N/c1nc(=O)n(C(=O)c2cccc(Cl)c2)cc1F [Compound 12] |  |  |  | 
21 | 137.3 to 139 °C | CN(C)/C=N/c1nc(=O)n(C(=O)c2ccccc2)cc1F [Compound 7] | 76 to 100% | 76 to 100% |  | 
22 | 130 to 132 °C | CN(C)/C=N/c1nc(=O)n(C(=O)c2ccc(F)c(F)c2)cc1F [Compound 11] | 76 to 100% | 76 to 100% |  | 
23 | 120 to 150 °C | Cc1cccc(C)c1C(=O)n1cc(F)c(/N=C/N(C)C)nc1=O [Compound 2, N′-[1-(2,6-dimethylbenzoyl)-5-fluoro-2-oxo-1,2-dihydro-pyrimidin-4-yl]-N,N-dimethylformamidine] | 76 to 100% | 76 to 100% |  | 
